# Assay results reported in patent publication US20160115540A1, “PRODRUGS AND DRUGS” (Biogen MA Inc., priority 2013, published 2016).
# Counter-ions that a name gives are not always drawn.
# Tested on: jejunum
# Test: Transcriptional profiling on Affymetrix GeneChips, single dose, naïve mice: jejunum
# Format: in vivo, C57BL/6 mice
# Conditions: for Number of differentially expressed genes identified: Jenjunum: Naïve, Single Dose
# Method: Treated mice were sacrificed at 2, 7, or 12 hours. Tissues (liver, spleen, kidney, jejunum, cortex, hippocampus, striatum and whole blood) were collected and analyzed by transcriptional profiling on mouse Affymetrix GeneChips.
# Tissues (liver, spleen, kidney, jejunum, cortex, hippocampus, striatum and whole blood) were collected and analyzed by transcriptional profiling on mouse Affymetrix GeneChips.
# Animals were exposed to CO2 and whole blood collected via cardiac puncture. Two 100 μl aliquots of whole blood were collected in 1.5 mL microcentrifuge tubes and snap frozen in liquid nitrogen. Peripheral (liver, spleen, kidney and jejunum) and CNS brain (cerebellum, hippocampus, striatum and cortex) tissues were harvested and snap frozen in liquid nitrogen, with special care taken to collect tissues of similar size and from the same location. All samples were stored at −80° C. until RNA extraction was conducted.
# For RNA preparation, frozen tissues were placed in 2 mL RNAse-free 96-well blocks with 1.5 mL QIAzol Lysis Reagent (QIAgen) and a 3.2 mm stainless steel bead (BioSpec Products, Bartlesville, Okla.). Tissues were disrupted for four cycles of 45 seconds in a Mini-Beadbeater (Biospec Products). RNA was extracted in chloroform and the aqueous phase was mixed with an equal volume of 70% ethanol. Extracted RNA was applied to RNeasy 96 plates and purified by the spin method according to the manufacturer's protocol (RNeasy 96 Universal Tissue Protocol, QIAgen, Hilden Germany).
# Automated sample amplifications and biotin labelings were carried out using the NuGEN Ovation RNA Amplification system V2 (Cat #3100), Ovation WB reagent (Cat #1300) and Encore Biotin module (Cat #4200) (NuGEN Technologies, Inc, San Carlos, Calif.) according to manufacturer's recommendations using an Arrayplex automated liquid handler (Beckman Coulter, Indianapolis, Ind.). Two micrograms of biotin labeled sscDNA probe were hybridized to Affymetrix GeneChip Affymetrix HT_MG-430_PM plate arrays with modified conditions as described in Allaire et al. Washing and staining of the hybridized arrays were completed as described in the GeneChip Expression analysis technical manual for HT plate arrays using the Genechip® Array Station (Affymetrix, Santa Clara, Calif.) with modifications as described in Allaire et al. The processed GeneChip® plate arrays were scanned using GeneTitan scanner (Affymetrix, Santa Clara, Calif.).
# Affymetrix scans were subject to quality control (QC) measures. These tests included a visual inspection of the distribution of raw signal intensities and an assessment of RNA degradation, relative log expression (RLE), and normalized unsealed standard error (NUSE). All sample scans that passed these QC metrics were included in the analysis.
# All CEL files were subjected to GC-content-based Robust Multi-array Average (GCRMA) normalization (version 2.20.0) (Irizarry R A, et al. Nucleic Acids Res 2003; 31:e15; Li C, et al. Genome Biol 2001; 2:[…]0032). Expression levels were log (base 2) transformed.
# All calculations and analyses were carried out using R (version 2.11.1) and Bioconductor computational tools (Gentleman R. Springer Science+Business Media 2005).
smiles,measurement,setting,value
"COC(=O)/C=C/C(=O)OC [DMF, dimethyl fumarate]",Pir (1429001_PM_at) differential expression,"Jejunum, 12 hr",3.79
same,Setd4 (1435405_PM_at) differential expression,"Jejunum, 12 hr",1.66
same,Slc5a4b (1422757_PM_at) differential expression,"Jejunum, 12 hr",2.21
same,Ugt2b5 (1419622_PM_at) differential expression,"Jejunum, 12 hr",4.92
same,Ugt2b36 (1455595_PM_at) differential expression,"Jejunum, 12 hr",2.94
same,Number of differentially expressed genes identified: Jenjunum,"100 mpk DMF-vs-100 mpk MMF, 2 h after last dosing",1
same,Number of differentially expressed genes identified: Jenjunum,"100 mpk DMF-vs-100 mpk MMF, 7 h after last dosing",2
same,Number of differentially expressed genes identified: Jenjunum,"100 mpk DMF-vs-100 mpk MMF, 12 h after last dosing",0
same,Number of differentially expressed genes identified: Jenjunum,"100 mpk, vs Vehicle, 2 h after last dosing",62
same,Number of differentially expressed genes identified: Jenjunum,"100 mpk, vs Vehicle, 7 h after last dosing",44
same,Number of differentially expressed genes identified: Jenjunum,"100 mpk, vs Vehicle, 12 h after last dosing",37
same,FC 9130221J17Rik (1443159_PM_at),"jejunum, 100DMF-vs-Veh, 2 h",2.30
same,FC Acss2 (1446542_PM_at),"jejunum, 100DMF-vs-Veh, 2 h",1.68
same,FC Akr1b8 (1448894_PM_at),"jejunum, 100DMF-vs-Veh, 2 h",7.35
same,FC Akr1c13 (1418672_PM_at),"jejunum, 100DMF-vs-Veh, 2 h",1.62
same,FC Akr1c19 (1455454_PM_at),"jejunum, 100DMF-vs-Veh, 2 h",2.45
same,FC Areg (1421134_PM_at),"jejunum, 100DMF-vs-Veh, 2 h",3.58
same,FC Cbr1 (1460196_PM_at),"jejunum, 100DMF-vs-Veh, 2 h",1.55
same,FC Cbr3 (1427912_PM_at),"jejunum, 100DMF-vs-Veh, 2 h",54.72
same,FC Ces1e (1419510_PM_at),"jejunum, 100DMF-vs-Veh, 2 h",1.85
same,FC Ces1f (1424266_PM_s_at),"jejunum, 100DMF-vs-Veh, 2 h",2.48
same,FC Ces1g (1449486_PM_at),"jejunum, 100DMF-vs-Veh, 2 h",4.06
same,FC Dnase2a (1430135_PM_at),"jejunum, 100DMF-vs-Veh, 2 h",1.77
same,FC Dppa5a (1416552_PM_at),"jejunum, 100DMF-vs-Veh, 2 h",3.07
same,FC Dusp4 1428834_PM_at,"jejunum, 100DMF-vs-Veh, 2 h",1.51
same,FC Entpd5 (1433763_PM_at),"jejunum, 100DMF-vs-Veh, 2 h",1.53
same,FC Ereg (1419431_PM_at),"jejunum, 100DMF-vs-Veh, 2 h",2.50
same,FC Ero1l (1419030_PM_at),"jejunum, 100DMF-vs-Veh, 2 h",1.92
same,FC Ero1l (1449324_PM_at),"jejunum, 100DMF-vs-Veh, 2 h",1.50
same,FC Esd (1441604_PM_at),"jejunum, 100DMF-vs-Veh, 2 h",1.71
same,FC Fam13a (1456611_PM_at),"jejunum, 100DMF-vs-Veh, 2 h",1.54
same,FC Gclc (1424296_PM_at),"jejunum, 100DMF-vs-Veh, 2 h",4.25
same,FC Gclc (1455959_PM_s_at),"jejunum, 100DMF-vs-Veh, 2 h",3.13
same,FC Gsr (1421816_PM_at),"jejunum, 100DMF-vs-Veh, 2 h",2.23
same,FC Gss (1441931_PM_x_at),"jejunum, 100DMF-vs-Veh, 2 h",1.95
same,FC Gss (1448273_PM_at),"jejunum, 100DMF-vs-Veh, 2 h",1.67
same,FC Gsta2 (1421040_PM_a_at),"jejunum, 100DMF-vs-Veh, 2 h",3.82
same,FC Gsta3 (1423436_PM_at),"jejunum, 100DMF-vs-Veh, 2 h",3.23
same,FC Gsta3 (1423437_PM_at),"jejunum, 100DMF-vs-Veh, 2 h",4.03
same,FC Gstm1 (1416416_PM_x_at),"jejunum, 100DMF-vs-Veh, 2 h",2.30
same,FC Gstm1 (1425627_PM_x_at),"jejunum, 100DMF-vs-Veh, 2 h",2.57
same,FC Gstm1 (1448330_PM_at),"jejunum, 100DMF-vs-Veh, 2 h",2.47
same,FC Gstm3 (1427473_PM_at),"jejunum, 100DMF-vs-Veh, 2 h",2.37
same,FC Gstm3 (1427474_PM_s_at),"jejunum, 100DMF-vs-Veh, 2 h",1.56
same,FC LOC100504040 (1457279_PM_at),"jejunum, 100DMF-vs-Veh, 2 h",2.18
same,FC Mafg (1448916_PM_at),"jejunum, 100DMF-vs-Veh, 2 h",2.20
same,FC Nqo1 (1423627_PM_at),"jejunum, 100DMF-vs-Veh, 2 h",2.16
same,FC Osgin1 (1424022_PM_at),"jejunum, 100DMF-vs-Veh, 2 h",2.08
same,FC Prss8 (1418320_PM_at),"jejunum, 100DMF-vs-Veh, 2 h",2.60
same,FC Ptk6 (1442923_PM_at),"jejunum, 100DMF-vs-Veh, 2 h",−2.42
same,FC Setd4 (1425239_PM_at),"jejunum, 100DMF-vs-Veh, 2 h",2.09
same,FC Setd4 (1435405_PM_at),"jejunum, 100DMF-vs-Veh, 2 h",1.91
same,FC Setd4 (1460373_PM_a_at),"jejunum, 100DMF-vs-Veh, 2 h",1.91
same,FC Slc35e3 (1428805_PM_at),"jejunum, 100DMF-vs-Veh, 2 h",1.53
same,FC Slc40a1 (1417061_PM_at),"jejunum, 100DMF-vs-Veh, 2 h",2.33
same,FC Srr (1453421_PM_at),"jejunum, 100DMF-vs-Veh, 2 h",1.99
same,FC Srxn1 (1425351_PM_at),"jejunum, 100DMF-vs-Veh, 2 h",1.71
same,FC Tifa (1426501_PM_a_at),"jejunum, 100DMF-vs-Veh, 2 h",−2.43
